Data as given in ChEMBL document CHEMBL1145508, “Role of homoserine transacetylase as a new target for antifungal agents” (Antimicrob Agents Chemother, 2007).

Legend:
[1] = Inhibition of Schizosaccharomyces pombe HTA in presence of 10 uM acetyl-CoA substrate
[2] = Inhibition of Schizosaccharomyces pombe HTA in presence of 100 uM acetyl-CoA substrate
[3] = Inhibition of Cryptococcus neoformans H99 HTA expressed in Escherichia coli BL21(DE3) cells

NC(=O)c1cccc2c1NC(C(=O)O)C1CC=CC21 (centres undefined)
IC50 [1]: 156 µM
IC50 [2]: 287 µM
IC50 [3]: 4.5 µM
Ki [3]: 91.7 µM
